The subject of one assay is DQ3.1. As to conditions: for IC50: read-out: PADRE Class II Binding Affinities, Table VIII A.
Assay [1] has as its target T1, DR4w4 (Homo sapiens, UniProt P01903+P01911, A100K/A169T/F76Y/I96L/K127E/L162R/M171V/N62H/P40V/Q125Y/R42H/S133A/S149N/S66Y/V115G/V209L/W38E). As to conditions: relative to parent 760.57.
A further assay deals with DR1 (Homo sapiens, UniProt P01903+P01911, A100R/D57E/F55L/F60I/F76Y/I96L/L162R/M171V/P40L/Q125E/R42F/V115G/Y59C). Conditions: relative to parent 760.57.
The target of assay [2] is T2, DRw53 (Homo sapiens, UniProt P01903+P13762). Conditions: relative to parent 760.57.
T2 sequence (P01903 26-254): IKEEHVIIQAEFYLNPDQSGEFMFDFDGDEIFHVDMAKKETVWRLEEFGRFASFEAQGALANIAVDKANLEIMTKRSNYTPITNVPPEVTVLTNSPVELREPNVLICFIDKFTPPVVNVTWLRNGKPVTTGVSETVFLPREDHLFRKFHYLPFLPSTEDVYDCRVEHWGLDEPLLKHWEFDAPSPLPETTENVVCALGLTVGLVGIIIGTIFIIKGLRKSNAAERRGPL
T2 sequence (P13762 30-266): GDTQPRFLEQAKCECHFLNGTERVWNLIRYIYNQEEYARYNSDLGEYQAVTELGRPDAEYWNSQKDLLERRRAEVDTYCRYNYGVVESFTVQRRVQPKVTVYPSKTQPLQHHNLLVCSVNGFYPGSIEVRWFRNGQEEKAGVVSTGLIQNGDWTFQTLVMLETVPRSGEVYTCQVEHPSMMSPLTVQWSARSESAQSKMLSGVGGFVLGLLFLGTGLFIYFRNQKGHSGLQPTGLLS
For assay [3], the target named is T3, DR3 (Homo sapiens, UniProt P01903+P01911, A100K/A102G/A103R/A169T/F55Y/I96L/K41T/L162R/M171V/P40S/Q125H/Q178H/Q39Y/R42S/S66N/T106N/T262R/W38E/Y61H). Conditions: relative to parent 760.57.
The target in assay [4] is T3, DR3. The experiment in a line: biochemical.
In the next assay the test system is human PBMC T cell lines. The assay is classed as cell-based.
For assay [5], the target named is T1, DR4w4. The experiment in a line: biochemical. As to conditions: PADRE Class II Binding Affinities DR4w4.
Assay [6] deals with T2, DRw53. Put plainly: biochemical.
Assay [7] has as its target T4, DR2w2a (Homo sapiens, UniProt P01903+Q30154). The experiment in a line: biochemical.
For assay [8], the target named is T4, DR2w2a. As to conditions: read-out: Binding capacity DR2w2a, IC50.
Setting [9] is: read-out: PADRE Class II Binding Affinities DR7, Table VIII A.
The mark [10] stands for this setting: read-out: PADRE Class II Binding Affinities DR5, Table VIII A.

Like-named read-outs stand apart in the source and are kept apart here. Non-standard residues stand in square brackets, D forms with d. Residues, ends and D or L forms follow the SMILES beside them. No end group written: not given here. Cha = N[C@@H](CC1CCCCC1)C(=O)O

We go through five molecules from patent publication US6413935B1, “Induction of immune response against desired determinants” (priority 1993, dated 2002).

T4 sequence (P01903 26-254): as the sequence (P01903 26-254) above
T4 sequence (Q30154 30-266): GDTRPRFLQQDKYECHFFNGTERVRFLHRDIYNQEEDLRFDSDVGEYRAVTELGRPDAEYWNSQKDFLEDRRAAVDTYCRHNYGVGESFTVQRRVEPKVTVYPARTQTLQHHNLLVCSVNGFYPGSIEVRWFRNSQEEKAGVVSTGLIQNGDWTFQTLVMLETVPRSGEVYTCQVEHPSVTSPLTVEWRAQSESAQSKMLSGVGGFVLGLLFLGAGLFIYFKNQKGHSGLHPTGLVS

Consider `C[C@H](NC(=O)[C@H](C)NC(=O)[C@H](C)NC(=O)[C@H](CC1CCCCC1)NC(=O)[C@H](C)NC(=O)[C@@H](C)N)C(=O)N[C@@H](C)C(=O)N[C@H](C(=O)N[C@@H](CCC(=O)O)C(=O)N[C@@H](CCCCN)C(=O)N[C@@H](C)C(=O)N[C@@H](C)C(=O)N[C@H](C)C(N)=O)[C@@H](C)O` [Peptide 906.30] (H-[dA]A[Cha]AAAATEKAA[dA]-NH2; N-terminus and C-terminus assumed), for which the IC50 in the assay on DQ3.1 came out at 0.148 µM; with DR7 (setting [9]) it was 0.758 µM; with DR5 (setting [10]) it was 0.0515 µM. In addition, the “Increase in DQ3.1 binding reactivity” value in the assay on DQ3.1 (relative to parent 760.57) is “no reactivity was gained”. In addition, the “Loss of DR4w4 binding reactivity” value on DR4w4 [1] came to 7 fold. The “Loss of DR7 binding reactivity” value in the assay on DR7 (relative to parent 760.57) was 10 fold. The “Loss of DR1 binding reactivity” value on DR1 was determined as 8 fold. For the same molecule, in the assay with DR5 (relative to parent 760.57), the “Loss of DR5 binding reactivity” value is 10 fold.

Consider `CC(C)C[C@H](NC(=O)[C@@H](NC(=O)[C@H](C)NC(=O)[C@H](C)NC(=O)[C@H](C)NC(=O)[C@H](C)NC(=O)[C@H](CC1CCCCC1)NC(=O)[C@H](C)NC(=O)[C@@H](C)N)[C@@H](C)O)C(=O)N[C@@H](CCCCN)C(=O)N[C@@H](C)C(=O)N[C@@H](Cc1ccccc1)C(=O)N[C@H](C)C(N)=O` [Peptide 906.50] (H-[dA]A[Cha]AAAATLKAF[dA]-NH2; N-terminus and C-terminus assumed), for which the “Increase in DR53 reactivity” value on DRw53 [2] came out at 40 fold. Further, the IC50 in the assay on DQ3.1 is 0.02 µM; with DR7 (setting [9]), 0.0735 µM; in the assay with DR5 (setting [10]), 0.0095 µM. For the same molecule, the “Increase in DR3 reactivity” value on DR3 [3] worked out at 8 fold.

Regarding `CC(C)C[C@H](NC(=O)[C@@H](NC(=O)[C@H](Cc1c[nH]cn1)NC(=O)[C@H](C)NC(=O)[C@H](C)NC(=O)[C@@H](NC(=O)[C@H](CC1CCCCC1)NC(=O)[C@H](CCCCN)NC(=O)[C@@H](C)N)C(C)C)[C@@H](C)O)C(=O)N[C@@H](CCCCN)C(=O)N[C@@H](C)C(=O)N[C@@H](C)C(=O)N[C@H](C)C(N)=O` [Peptide 955.15], the IC50 at DR3 [4] (PADRE Class II Binding Affinities DR3, Table IX) stood at 2.5 µM; at DR4w4 [5] it was 0.0032 µM; against DRw53 [6], 0.05 µM; at DR2w2a [7] (PADRE Class II Binding Affinities DR2w282, Table IX), 0.0054 µM. Also, in the assay with human PBMC T cell lines, the “Donors with significant (>10,000 cpm) T cell response / donors tested, second stimulation” value is given as 2/15. Further, the “Donors with significant (>10,000 cpm) T cell response / donors tested, third stimulation” value in the assay with human PBMC T cell lines is listed as 4/5.

Consider `CC(C)C[C@H](NC(=O)[C@@H](NC(=O)[C@H](Cc1c[nH]c2ccccc12)NC(=O)[C@H](C)NC(=O)[C@H](C)NC(=O)[C@@H](NC(=O)[C@H](CC1CCCCC1)NC(=O)[C@H](CCCCN)NC(=O)[C@H](C)N)C(C)C)[C@@H](C)O)C(=O)N[C@@H](CCCCN)C(=O)N[C@@H](C)C(=O)N[C@@H](C)C(=O)N[C@@H](C)C(N)=O` [Peptide 965.17], for which the IC50 on DR3 [4] (PADRE Class II Binding Affinities DR3) was determined as 3.21 µM; at DRw53 [6] it was 0.107 µM; on DR2w2a [7] (PADRE Class II Binding Affinities DR2w282), 0.0058 µM. In the assay on human PBMC T cell lines, the “Donors with significant (>10,000 cpm) T cell response / donors tested, second stimulation” value was 2/5. The “Donors with significant (>10,000 cpm) T cell response / donors tested, third stimulation” value in the assay on human PBMC T cell lines is given as 4/5.

In the case of “YSGPLKAEIAQRLEDV [MT (Y)17-31, reference compound]”, the IC50 in the assay with DR7 (read-out: Binding capacity DR7, IC50) is 0.208 µM; at DR2w2a [8], 0.35 µM; in the assay on DR5 (read-out: Binding capacity DR5, IC50), greater than 10 µM.
